Measurements reported in a compilation of properties of binary mixtures (doi:10.2298/jsc190413047v).

Test: xn = mol fraction of the nth substance listed
Conditions: 100 kPa

CC[n+]1ccn(C)c1C.O=S(=O)([N-]S(=O)(=O)C(F)(F)F)C(F)(F)F + O=C1CCCO1
electrical conductivity [S/m]
Conditions | 293.15 K | 298.15 K | 303.15 K | 308.15 K | 313.15 K | 318.15 K | 323.15 K
x2 = 0 | 0.309 | – | 0.468 | 0.567 | 0.67 | 0.783 | –
x2 = 0.0999 | 0.383 | 0.472 | 0.574 | 0.684 | 0.805 | 0.938 | –
x2 = 0.186 | 0.476 | 0.572 | 0.686 | 0.803 | 0.934 | 1.07 | 1.21
x2 = 0.3071 | – | 0.742 | 0.868 | 1.01 | 1.16 | 1.31 | 1.45
x2 = 0.4005 | 0.726 | 0.864 | 1.01 | 1.17 | 1.33 | 1.5 | 1.61
x2 = 0.4996 | 0.881 | 1.01 | 1.17 | – | 1.51 | – | 1.81
x2 = 0.5987 | 1.06 | 1.22 | 1.37 | 1.53 | 1.7 | 1.88 | –
x2 = 0.6999 | 1.24 | – | 1.57 | 1.74 | 1.91 | 2.08 | 2.21
x2 = 0.7999 | – | – | 1.69 | 1.85 | 2.01 | 2.19 | 2.39
x2 = 0.8474 | 1.43 | 1.58 | 1.73 | 1.86 | 2.01 | 2.15 | –
x2 = 0.8999 | 1.35 | 1.48 | 1.6 | – | – | 1.97 | 2.07
x2 = 0.9507 | – | 1 | 1.08 | 1.16 | 1.24 | 1.32 | –
